Reference: BigSolDB 2.1

O=C(c1ccc(F)cc1)c1ccc(F)cc1
solubility (mole fraction)
Details	in acetone	in acetonitrile	in ethanol	in ethyl acetate	in isobutanol	in isopropanol	in methanol	in methyl acetate	in n-butanol	in n-propanol
293.15 K	0.0915	0.03	0.0084	0.101	0.0097	0.0079	0.0062	0.0956	0.011	0.0103
298.15 K	0.107	0.0386	0.0104	0.117	0.0125	0.0101	0.0076	0.112	0.014	0.0127
303.15 K	0.126	0.0491	0.0129	0.134	0.0158	0.0131	0.0093	0.131	0.0177	0.0159
308.15 K	0.147	0.0631	0.016	0.155	0.02	0.017	0.0114	0.152	0.0225	0.0197
313.15 K	0.172	0.08	0.0197	0.177	0.0255	0.0217	0.0138	0.177	0.0282	0.0246
318.15 K	0.199	0.101	0.0242	0.203	0.0322	0.0276	0.0168	0.205	0.0354	0.0305
323.15 K	0.231	0.126	0.0297	0.231	0.0407	0.0352	0.0204	0.238	0.0444	0.0378
328.15 K	0.266	0.158	0.0364	0.264	0.0511	0.0445	0.0245	0.274	0.0555	0.0467
333.15 K	0.308	0.197	0.0447	0.299	0.0643	0.056	0.0297	0.316	0.0691	0.0576
